Reference: patent publication US20190247361A1, “OXYTOCIN ANTAGONIST DOSING REGIMENS FOR PROMOTING EMBRYO IMPLANTATION AND PREVENTING MISCARRIAGE” (ObsEva S.A., priority 2016, published 2019)

What was measured:
[1] = tested on: subjects undergoing embryo transfer therapy; assay: Phase 2 clinical study: pregnancy and live birth after embryo transfer; type: in vivo, human
Excerpt: A total of 247 female subjects were selected for treatment based on a variety of inclusion criteria. Of these, 244 subjects completed the study. The study was open to healthy female volunteers from 18 to 36 years of age that had previously undergone up to one IVF or ICSI cycle that resulting in a negative pregnancy test as assessed by hCG detection, despite the transfer of at least one embryo of good quality, which was defined as an embryo having from six to eight blastomeres of uniform size and shape on the day of embryo transfer, ooplasm having no granularity, absence of multinucleation, and a maximum fragmentation of 10%. Subjects included in the study had at least one functional ovary and were capable of communicating with the investigator and research staff and complying with the requirements of the study protocol. Data are presented in the form of mean (standard deviation).
Subjects included in the study underwent an initial screening period beginning up to 12 weeks prior to the day of oocyte retrieval from the subject. During this 12-week period, subjects underwent physical and gynecological examination in preparation for oocyte retrieval. This analysis included a recordation of the subjects' vital signs, hematology and biochemistry analysis of blood samples withdrawn from the subjects, urinary analysis, and a comprehensive review of the subjects' medical histories.
At the conclusion of the screening period, subjects underwent controlled ovarian hyperstimulation by administration of a GnRH antagonist so as to prevent a premature rise in serum LH concentration. Concurrent pre-treatment with an oral contraceptive prior to controlled ovarian hyperstimulation was allowed, but not required. Final follicular maturation was performed with a single administration of hCG to the subject. Luteal support was performed by intravaginal administration of micronized natural progesterone at a dose of 600 mg (3×200 mg dosage forms) daily, commencing within 6-24 hours of oocyte retrieval. Progesterone administration continued for at least 6 weeks following embryo transfer for subjects testing positive for pregnancy at 14 days following embryo transfer. Retrieved oocytes contained at least 1-4 mature oocytes (i.e., ova), which were subsequently used for IVF or ICSI for embryo generation.
The embryo transfer procedure was conducted three days after the oocyte retrieval day (OPU+3 days). Subjects undergoing embryo transfer were monitored prior to initiating the procedure. This analysis included a recordation of vital signs, as well as a transvaginal ultrasound to assess uterine contraction rate and endometrial thickness. […] Eligible subjects subsequently underwent blood sample analysis to determine pre-treatment levels of serum E2 and P4.
(§1) From one to two embryos of good quality were transferred to each subject. To reduce uterine contractions at the time of embryo transfer, soft or ultra-soft catheters were used and contact with the uterine fundus was avoided. Any difficulties that occurred during the embryo transfer procedure were recorded, including instances in which uterine sounding or cervical dilation were required, instances in which a harder catheter was required, or instances in which blood was found in any part of the catheter.
Approximately 1 hour following embryo transfer, subjects underwent a final physical examination and were subsequently discharged from the clinical unit until the first follow-up visit, which occurred at about 14 days following oocyte retrieval (OPU+14 days). At this time, subjects underwent a physical examination as well as a blood sample analysis to assess pregnancy by detection of hCG. Subjects testing positive for pregnancy continued the study and were scheduled for follow-up examinations at about 6 weeks following embryo transfer and at about 10 weeks following oocyte retrieval (OPU+10 weeks). Subjects that returned for examination at about 6 weeks following embryo transfer underwent ultrasound analysis. […]

[2] = serum compound (II) level at time of embryo transfer (Phase 2 study); type: in vivo; conditions: female, human, oral, about 3.5 hours after administration, mean (standard deviation)
Procedure: as §1

[3] = tested on: cytochrome P450 in combination with UGT; assay: microsomal stability, pooled liver microsomes, cytochrome P450 in combination with UGT; type: in vitro ADME; conditions: 45 minute experiment
Procedure: At five time points over the course of a 45 minute experiment, the compounds were analyzed by liquid chromatography and tandem mass spectrometry (LC-MS/MS). Intrinsic clearance values (CLint) with standard error (SE CLint) and metabolic half-life (t1/2) were calculated and are indicated in Table 9, below.

[4] = tested on: HEK293EBNA cells; conditions: suppressing Ca^2+ mobilization in cultured HEK293EBNA cells; cited from earlier work
[5] = in vivo, cited from earlier work
[6] = tested on: human subjects; conditions: cited from earlier work
[7] = All P4 quartiles, 1 embryo transferred, 100 mg dose
[8] = All P4 quartiles, 1 embryo transferred, 300 mg dose
[9] = All P4 quartiles, 1 embryo transferred, 900 mg dose
[10] = All P4 quartiles, 1 embryo transferred, All doses
[11] = All P4 quartiles, 2 embryos transferred, 100 mg dose
[12] = All P4 quartiles, 2 embryos transferred, 300 mg dose
[13] = All P4 quartiles, 2 embryos transferred, 900 mg dose
[14] = All P4 quartiles, 2 embryos transferred, All doses
[15] = Excluding upper P4 quartile, 1 embryo transferred, 100 mg dose
[16] = Excluding upper P4 quartile, 1 embryo transferred, 300 mg dose
[17] = Excluding upper P4 quartile, 1 embryo transferred, 900 mg dose
[18] = Excluding upper P4 quartile, 1 embryo transferred, All doses
[19] = Excluding upper P4 quartile, 2 embryos transferred, 100 mg dose
[20] = Excluding upper P4 quartile, 2 embryos transferred, 300 mg dose
[21] = Excluding upper P4 quartile, 2 embryos transferred, 900 mg dose
[22] = Excluding upper P4 quartile, 2 embryos transferred, All doses
[23] = excluding subjects from pre-treatment serum P4 concentration Q4, 100 mg dose
[24] = excluding subjects from pre-treatment serum P4 concentration Q4, 300 mg dose
[25] = excluding subjects from pre-treatment serum P4 concentration Q4, 900 mg dose
[26] = excluding subjects from pre-treatment serum P4 concentration Q4, All doses

## CO/N=C1/C[C@@H](CO)N(C(=O)c2ccc(-c3ccccc3C)cc2)C1 [Compound (II), (3Z,5S)-5-(hydroxymethyl)-1-[(2′-methyl-1,1′-biphenyl-4-yl)carbonyl]pyrrolidin-3-one O-methyloxime]
[1]; [7]
  Live birth rate at a gestational age of at least 24 weeks: (33.33%)
  Live birth rate at a gestational age of at least 24 weeks, Frequency: 13/39
[1]; [8]
  Live birth rate at a gestational age of at least 24 weeks: (33.33%)
  Live birth rate at a gestational age of at least 24 weeks, Frequency: 12/36
[1]; [9]
  Live birth rate at a gestational age of at least 24 weeks: (40.00%)
  Live birth rate at a gestational age of at least 24 weeks, Frequency: 14/35
[1]; [10]
  Live birth rate at a gestational age of at least 24 weeks: (35.45%)
  Live birth rate at a gestational age of at least 24 weeks, Frequency: 39/110
[1]; [11]
  Live birth rate at a gestational age of at least 24 weeks: (52.17%)
  Live birth rate at a gestational age of at least 24 weeks, Frequency: 12/23
[1]; [12]
  Live birth rate at a gestational age of at least 24 weeks: (37.50%)
  Live birth rate at a gestational age of at least 24 weeks, Frequency: 9/24
[1]; [13]
  Live birth rate at a gestational age of at least 24 weeks: (50.00%)
  Live birth rate at a gestational age of at least 24 weeks, Frequency: 12/24
[1]; [14]
  Live birth rate at a gestational age of at least 24 weeks: (46.48%)
  Live birth rate at a gestational age of at least 24 weeks, Frequency: 33/71
[1]; [15]
  Live birth rate at a gestational age of at least 24 weeks: (32.35%)
  Live birth rate at a gestational age of at least 24 weeks, Frequency: 11/34
[1]; [16]
  Live birth rate at a gestational age of at least 24 weeks: (45.45%)
  Live birth rate at a gestational age of at least 24 weeks, Frequency: 10/22
[1]; [17]
  Live birth rate at a gestational age of at least 24 weeks: (44.83%)
  Live birth rate at a gestational age of at least 24 weeks, Frequency: 13/29
[1]; [18]
  Live birth rate at a gestational age of at least 24 weeks: (40.00%)
  Live birth rate at a gestational age of at least 24 weeks, Frequency: 34/85
[1]; [19]
  Live birth rate at a gestational age of at least 24 weeks: (50.00%)
  Live birth rate at a gestational age of at least 24 weeks, Frequency: 8/16
[1]; [20]
  Live birth rate at a gestational age of at least 24 weeks: (53.85%)
  Live birth rate at a gestational age of at least 24 weeks, Frequency: 7/13
[1]; [21]
  Live birth rate at a gestational age of at least 24 weeks: (60.00%)
  Live birth rate at a gestational age of at least 24 weeks, Frequency: 12/20
[1]; [22]
  Live birth rate at a gestational age of at least 24 weeks: (55.10%)
  Live birth rate at a gestational age of at least 24 weeks, Frequency: 27/49
[1]; all subjects, 100 mg dose
  Live birth rate at gestational age of at least 24 weeks: 40.3%
  Ongoing pregnancy rate at 6 weeks post embryo transfer: 46.8%
  Ongoing pregnancy rate at 10 weeks post oocyte retrieval: 43.5%
  Positive pregnancy test at 14 days post embryo transfer: 56.5%
[1]; all subjects, 300 mg dose
  Live birth rate at gestational age of at least 24 weeks: 35.0%
  Ongoing pregnancy rate at 6 weeks post embryo transfer: 35.0%
  Ongoing pregnancy rate at 10 weeks post oocyte retrieval: 35.0%
  Positive pregnancy test at 14 days post embryo transfer: 50.0%
[1]; all subjects, 900 mg dose
  Live birth rate at gestational age of at least 24 weeks: 43.3%
  Ongoing pregnancy rate at 6 weeks post embryo transfer: 46.7%
  Ongoing pregnancy rate at 10 weeks post oocyte retrieval: 45.0%
  Positive pregnancy test at 14 days post embryo transfer: 53.3%
[1]; all subjects, All doses
  Live birth rate at gestational age of at least 24 weeks: 39.6%
  Ongoing pregnancy rate at 6 weeks post embryo transfer: 42.9%
  Ongoing pregnancy rate at 10 weeks post oocyte retrieval: 41.2%
[1]; [23]
  Absolute increase in live birth rate vs placebo: 7.4%
  Live birth rate at gestational age of at least 24 weeks: 38.0%
  Live birth rate at gestational age of at least 24 weeks, frequency: 19/50;
  Ongoing pregnancy rate at 6 weeks post embryo transfer: 44.0%
  Ongoing pregnancy rate at 10 weeks post oocyte retrieval: 42.0%
  Positive pregnancy test at 14 days post embryo transfer: 54.0%
[1]; [24]
  Absolute increase in live birth rate vs placebo: 18.0%
  Live birth rate at gestational age of at least 24 weeks: 48.6%
  Live birth rate at gestational age of at least 24 weeks, frequency: 17/35;
  Ongoing pregnancy rate at 6 weeks post embryo transfer: 48.6%
  Ongoing pregnancy rate at 10 weeks post oocyte retrieval: 48.6%
  Positive pregnancy test at 14 days post embryo transfer: 62.9%
[1]; [25]
  Absolute increase in live birth rate vs placebo: 20.4%
  Live birth rate at gestational age of at least 24 weeks: 51.0%
  Live birth rate at gestational age of at least 24 weeks, frequency: 25/49;
  Ongoing pregnancy rate at 6 weeks post embryo transfer: 53.1%
  Ongoing pregnancy rate at 10 weeks post oocyte retrieval: 51.0%
  Positive pregnancy test at 14 days post embryo transfer: 59.2%
[1]; [26]
  Absolute increase in live birth rate vs placebo: 14.9%
  Live birth rate at gestational age of at least 24 weeks: 45.5%
  Live birth rate at gestational age of at least 24 weeks, frequency: 61/134;
  Ongoing pregnancy rate at 6 weeks post embryo transfer: 48.5%
  Ongoing pregnancy rate at 10 weeks post oocyte retrieval: 47.0%
[2]; 100 mg dose
  concentration at 3.5 h: 484 ng/mL
[2]; 300 mg dose
  concentration at 3.5 h: 1450 ng/mL
[2]; 900 mg dose
  concentration at 3.5 h: 4160 ng/mL
[3]; read-out: CLint, Metabolic Stability - CYP/UGT
  microsomal CLint at 3 μM: 9.33 µL/min/mg
[3]; read-out: t1/2, Metabolic Stability - CYP/UGT
  half-life at 3 μM: 2.48 h
[4]
  IC50: 81 nM
[5]; po
  oral bioavailability: 42-100%
[5]
  serum half-life: 11 to 12 h
  tmax: 1 to 4 h
[6]
  safely tolerated dose: up to 1500 mg
